Laboratory results: ChEMBL document CHEMBL5727418, “Substituted imidazo[2,1-f][1,2,4]triazines, substituted imidazo[1,2-a]pyridines and substituted imidazo[1,2-b]pyridazines as PI3K-gamma inhibitors” (2019)

Key:
[1] = biological target: Phosphatidylinositol 4,5-bisphosphate 3-kinase catalytic subunit gamma isoform (Homo sapiens, UniProt P48736); assay: PI3Kγ (p110γ) Recombinant Human Protein was purchased from Life technology (Grand Island, N.Y.). […] Inhibitors were first diluted serially in DMSO and added to the plate wells before the addition of other reaction components. The final concentration of DMSO in the assay was 2%. The PI3Kγ assay was carried out at room temperature in 20 mM MOPS, pH 6.7, 10 mM MgCl2, 5 mM DTT and CHAPS 0.03%. […] The final concentration of SPA beads is 1.0 mg/mL. After the plate sealing, plates were shaken overnight at room temperature and centrifuged at 1500 rpm for 10 min, the radioactivity of the product was determined by scintillation counting on Topcount (Perkin-Elmer).
Phosphatidylinositol 4,5-bisphosphate 3-kinase catalytic subunit gamma isoform, sequence (P48736 whole entry, canonical isoform): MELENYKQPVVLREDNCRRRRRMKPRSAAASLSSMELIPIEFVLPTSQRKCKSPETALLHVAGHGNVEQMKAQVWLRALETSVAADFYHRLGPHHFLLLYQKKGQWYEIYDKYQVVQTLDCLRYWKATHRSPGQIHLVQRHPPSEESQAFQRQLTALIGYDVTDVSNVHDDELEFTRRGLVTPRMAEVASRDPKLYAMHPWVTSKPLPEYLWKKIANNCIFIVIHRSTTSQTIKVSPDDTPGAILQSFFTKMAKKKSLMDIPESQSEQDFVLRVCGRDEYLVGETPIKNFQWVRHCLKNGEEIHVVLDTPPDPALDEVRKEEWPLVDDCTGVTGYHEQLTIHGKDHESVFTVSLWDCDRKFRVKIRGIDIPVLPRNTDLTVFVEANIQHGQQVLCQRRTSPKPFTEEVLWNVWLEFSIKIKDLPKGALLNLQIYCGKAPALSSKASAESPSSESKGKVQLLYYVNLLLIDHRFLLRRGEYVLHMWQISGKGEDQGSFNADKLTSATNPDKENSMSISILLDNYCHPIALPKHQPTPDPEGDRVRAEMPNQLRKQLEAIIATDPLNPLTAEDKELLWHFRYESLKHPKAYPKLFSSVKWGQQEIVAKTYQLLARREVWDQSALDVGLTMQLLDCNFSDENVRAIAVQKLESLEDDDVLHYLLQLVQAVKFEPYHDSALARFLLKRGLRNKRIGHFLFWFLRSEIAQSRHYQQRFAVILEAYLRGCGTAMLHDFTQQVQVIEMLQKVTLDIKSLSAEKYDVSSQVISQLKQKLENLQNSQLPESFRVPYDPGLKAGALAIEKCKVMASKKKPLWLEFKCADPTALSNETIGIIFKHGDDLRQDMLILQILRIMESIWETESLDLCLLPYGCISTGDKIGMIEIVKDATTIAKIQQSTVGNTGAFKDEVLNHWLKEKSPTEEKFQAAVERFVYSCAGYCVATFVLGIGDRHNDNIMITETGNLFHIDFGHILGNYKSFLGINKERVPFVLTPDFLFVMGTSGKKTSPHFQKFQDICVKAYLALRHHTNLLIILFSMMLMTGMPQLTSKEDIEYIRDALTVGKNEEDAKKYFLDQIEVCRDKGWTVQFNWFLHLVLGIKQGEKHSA

[2] = biological target: T1, Phosphatidylinositol 4,5-bisphosphate 3-kinase catalytic subunit delta isoform (Homo sapiens, UniProt O00329); assay: Scintillation Proximity Assay: PI3Kδ:[γ-33P]ATP (10 mCi/mL) and Wheat Germ Agglutinin (WGA) YSi SPA Scintillation Beads was purchased from Perkin-Elmer (Waltham, Mass.). Lipid kinase substrate, D-myo-Phosphatidylinositol 4,5-bisphosphate (PtdIns(4,5)P2)D (+)-sn-1,2-di-O-octanoylglyceryl, 3-O-phospho linked (PIP2), CAS 204858-53-7, was purchased from Echelon Biosciences (Salt Lake City, Utah). PI3Kδ (p110δ/p85α) Recombinant Human Protein was purchased from Eurofins (St Charles, Mo.). ATP, MgCl2, DTT, EDTA, MOPS and CHAPS were purchased from Sigma-Aldrich (St. Louis, Mo.).The kinase reaction was conducted in polystyrene 384-well Greiner Bio-one white plate from Thermo Fisher Scientific in a final volume of 25 μL. Inhibitors were first diluted serially in DMSO and added to the plate wells before the addition of other reaction components. The final concentration of DMSO in the assay was 2%. The PI3Kδ assay was carried out at room temperature in 20 mM MOPS, pH 6.7, 10 mM MgCl2, 5 mM DTT and CHAPS 0.03%. Reactions were initiated by the addition of ATP, the final reaction mixture consisted of 20 μM PIP2, 2 μM ATP, 0.5 μCi [γ-33P] ATP, 3.4 nM PI3Kδ. Reactions were incubated for 120 min and terminated by the addition of 40 μL SPA beads suspended in quench buffer: 163 mM potassium phosphate pH 7.8, 20% glycerol, 25 mM EDTA. The final concentration of SPA beads is 1.0 mg/mL. […]
T1 sequence (O00329 whole entry): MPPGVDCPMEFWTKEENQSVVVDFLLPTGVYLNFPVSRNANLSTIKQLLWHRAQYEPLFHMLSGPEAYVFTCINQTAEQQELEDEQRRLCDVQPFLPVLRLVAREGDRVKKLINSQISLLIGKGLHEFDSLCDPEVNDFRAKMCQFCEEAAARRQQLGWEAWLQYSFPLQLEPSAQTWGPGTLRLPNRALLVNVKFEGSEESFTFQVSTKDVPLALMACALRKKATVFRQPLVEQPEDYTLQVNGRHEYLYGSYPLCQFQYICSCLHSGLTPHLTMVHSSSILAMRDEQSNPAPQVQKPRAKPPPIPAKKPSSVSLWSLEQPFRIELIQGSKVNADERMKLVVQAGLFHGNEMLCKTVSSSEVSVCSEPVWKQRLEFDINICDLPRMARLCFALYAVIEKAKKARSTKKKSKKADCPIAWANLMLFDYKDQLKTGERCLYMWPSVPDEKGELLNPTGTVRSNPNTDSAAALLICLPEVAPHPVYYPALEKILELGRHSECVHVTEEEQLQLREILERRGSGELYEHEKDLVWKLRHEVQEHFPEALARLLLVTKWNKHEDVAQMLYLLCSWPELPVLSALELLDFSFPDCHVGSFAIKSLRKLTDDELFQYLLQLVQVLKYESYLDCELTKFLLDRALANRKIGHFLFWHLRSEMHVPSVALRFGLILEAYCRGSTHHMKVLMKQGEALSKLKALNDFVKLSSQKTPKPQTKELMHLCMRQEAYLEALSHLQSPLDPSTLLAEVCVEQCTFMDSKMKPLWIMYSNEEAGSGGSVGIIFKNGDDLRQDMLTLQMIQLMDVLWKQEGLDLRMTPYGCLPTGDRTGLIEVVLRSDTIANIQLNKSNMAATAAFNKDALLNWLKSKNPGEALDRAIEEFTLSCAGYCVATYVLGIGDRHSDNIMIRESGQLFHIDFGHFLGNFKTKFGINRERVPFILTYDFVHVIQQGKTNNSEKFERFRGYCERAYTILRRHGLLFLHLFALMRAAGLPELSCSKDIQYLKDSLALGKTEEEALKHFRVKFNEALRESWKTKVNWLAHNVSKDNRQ

For `Cc1ccc(S(=O)(=O)CC2CCC2)cc1-c1cnc2c(N)ncnn12`, the IC50 [1] was under 500 nM and the IC50 [2] was under 2000 nM.
